Source: patent US20140271723A1 (priority 2013, published 2014)

System: pseudorabies virus (PRV)
Set-up: species or system pigs
Details: pig, in vivo

Sequence | protection from mortality caused by challenge with virulent PRV
KKSVRGKGKGQKRKRKKSRYKSWSV [VEGF peptide] | protected the animals from mortality
YVRVRRPPKGKHRKFKHTH [PDGF peptide] | protected the animals from mortality
